The test system of series [1] is Staphylococcus epidermidis. Put plainly: Antibacterial activity against Staphylococcus epidermidis SE1457 by broth microdilution method. It is filed as functional.
In series [2] the test system is Staphylococcus aureus. Put plainly: Antibacterial activity against methicillin sensitive Staphylococcus aureus SA113 by broth microdilution method. It is filed as functional. Background: In broth dilution the organism is exposed to a series of concentrations in liquid medium.
In the next series the test system is Enterococcus faecalis. Put plainly: Antibacterial activity against Enterococcus faecalis OG1RF by broth microdilution method. It is filed as functional.
For another series, the system named is Enterococcus faecium. Nature of the series: Antibacterial activity against Enterococcus faecium EFM64 by broth microdilution method. It is filed as functional.
Series [3] can be described thus: Cytotoxicity against human LX2 cells incubated for 24 hrs by CCK8 assay. It is filed as toxicity, cell-based. The following applies: LX-2 cells. (Formazan colour is commonly taken as a measure of viable cells.)
A short description of series [4]: Hemolytic activity against human erythrocytes measured after 1 hr. It is filed as toxicity, cell-based, Erythrocyte.
For series [5], the target named is T1, Sensor protein kinase WalK (Staphylococcus aureus, UniProt Q9RDT3).
T1 sequence (Q9RDT3 whole entry): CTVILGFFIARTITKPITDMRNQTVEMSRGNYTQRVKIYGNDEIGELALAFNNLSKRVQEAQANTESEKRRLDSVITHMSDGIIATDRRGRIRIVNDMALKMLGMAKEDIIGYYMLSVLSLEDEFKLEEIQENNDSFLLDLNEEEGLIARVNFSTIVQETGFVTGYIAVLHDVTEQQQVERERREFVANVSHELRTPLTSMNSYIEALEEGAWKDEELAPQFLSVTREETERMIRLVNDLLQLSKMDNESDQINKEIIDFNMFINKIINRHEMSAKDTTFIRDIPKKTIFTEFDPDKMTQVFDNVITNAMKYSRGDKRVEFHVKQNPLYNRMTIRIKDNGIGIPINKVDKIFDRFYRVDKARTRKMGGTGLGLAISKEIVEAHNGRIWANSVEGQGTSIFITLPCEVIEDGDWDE
Put plainly: Inhibition of Staphylococcus aureus YycG expressed in Escherichia coli preincubated for 30 mins followed by ATP addition and measured after 30 mins by kinase-Glo luminescent assay. Background: Kinase-Glo measures the ATP left after a reaction by luminescence.

For series [6], the system named is Staphylococcus aureus. Put plainly: Antibacterial activity against methicillin resistant Staphylococcus aureus USA300 infected in BALB/c mouse pneumonia model assessed as increase in mouse survival rate at 20 mg/kg, ip administered every 12 hrs for 3 times and measured after 48 hrs. It is filed as functional, organism-based.
Series [7] relates to Staphylococcus aureus. Put plainly: Antibacterial activity against methicillin resistant Staphylococcus aureus USA300 infected in BALB/c mouse pneumonia model assessed as log reduction in lung bacterial count at 20 mg/kg, ip administered every 12 hrs for 3 times and measured after 48 hrs. It is filed as functional.
Series [8] has as its system Staphylococcus aureus. Nature of the series: Induction of resistance development in methicillin sensitive Staphylococcus aureus SA113 assessed as fold increase in MIC at 1/2 MIC incubated for 16 hrs after 20 serial passages. It is filed as functional.
The test system of series [9] is Staphylococcus epidermidis. Nature of the series: Induction of resistance development in Staphylococcus epidermidis SE1457 assessed as fold increase in MIC at 1/2 MIC incubated for 16 hrs after 20 serial passages. It is filed as functional.

The structures appear in SMILES notation. In brackets after ≈: the same amount, converted by molar mass. Activity calls are given as the source filed them. The rule behind the calls is not given here. Bounds are passed on as bounds.

In the case of `O=C(C1=C(O)C(=O)N(c2nnc(SCc3ccccc3Cl)s2)C1c1ccccc1)c1cc2ccccc2o1` (stereo not given), the MIC (in series [1]; against Staphylococcus aureus [2]; against Enterococcus faecalis; with Enterococcus faecium) was over 100 µM throughout. In [3], the CC50 (in general, the concentration that lowers cell viability or growth by half) at 24 h is over 100 µM. In addition, the HC50 (as a rule, the concentration giving 50% haemolysis) at 1 h in [4] is over 200 µM.
As for `O=C(C1=C(O)C(=O)N(c2nnc(SCc3ccccc3)s2)C1c1ccccc1O)c1cc2ccccc2s1` (stereo not given), the MIC (in series [1]; in the series with Staphylococcus aureus [2]; against Enterococcus faecalis; against Enterococcus faecium) was over 100 µM in each case. In series [3], the CC50 at 24 h is over 100 µM. Further, in series [4], the HC50 at 1 h is over 200 µM.
With `O=C(C1=C(O)C(=O)N(c2nnc(SCc3ccccc3)s2)C1c1ccccc1O)c1ccc(C(F)(F)F)cc1` (stereo not given), the MIC (in [1]; in the series on Staphylococcus aureus [2]; in the series on Enterococcus faecalis; against Enterococcus faecium) was over 100 µM each time. Besides, the CC50 at 24 h in [3] is over 100 µM. In addition, in series [4], the HC50 at 1 h is over 200 µM.
For the compound `COc1ccc(C(=O)C2=C(O)C(=O)N(c3nnc(SCc4ccccc4)s3)C2c2ccccc2O)cc1` (stereo not given), the MIC (in [1]; against Staphylococcus aureus [2]; against Enterococcus faecalis; against Enterococcus faecium) was over 100 µM throughout. In addition, the CC50 at 24 h in series [3] is over 100 µM. Besides, the HC50 at 1 h in [4] is over 200 µM.
Regarding `O=C(C1=C(O)C(=O)N(c2nnc(SCc3ccc(Cl)cc3)s2)C1c1ccccc1O)c1cc2ccccc2o1` (stereo not given), the MIC – broadly, the lowest concentration that inhibits growth of the organism – in series [1] came to 25 µM (≈ 14.4 µg/mL); in the series on Staphylococcus aureus [2], 25 µM (≈ 14.4 µg/mL); in the series on Enterococcus faecalis it was 50 µM (≈ 28.8 µg/mL); against Enterococcus faecium, 50 µM (≈ 28.8 µg/mL). In [3], this compound showed a CC50 at 24 h of over 100 µM. The HC50 at 1 h in [4] was over 200 µM.
For the compound `O=C(C1=C(O)C(=O)N(c2nnc(SCc3ccccc3)s2)C1c1ccccc1O)c1ccc([N+](=O)[O-])cc1` (stereo not given), the MIC (in [1]; in the series with Staphylococcus aureus [2]; with Enterococcus faecalis; in the series with Enterococcus faecium) was over 100 µM in each case. Moreover, the CC50 at 24 h in series [3] was over 100 µM. The HC50 at 1 h in series [4] is over 200 µM.
For the compound `O=C(C1=C(O)C(=O)N(c2nnc(SCc3ccccc3)s2)C1c1ccccc1O)c1ccc(F)cc1` (stereo not given), the MIC (in series [1]; against Staphylococcus aureus [2]; in the series on Enterococcus faecalis; with Enterococcus faecium) was over 100 µM in each case. The same compound came in with a CC50 at 24 h in series [3] of over 100 µM. In [4], this compound gave an HC50 at 1 h of over 200 µM.
In the case of `O=C(O)COc1ccc(C2C(C(=O)c3cc4ccccc4o3)=C(O)C(=O)N2c2nnc(SCc3ccccc3Cl)s2)cc1` (stereo not given), the MIC (in [1]; in the series on Staphylococcus aureus [2]; in the series with Enterococcus faecalis; in the series with Enterococcus faecium) was over 100 µM in each case. Moreover, the CC50 at 24 h in series [3] is over 100 µM. This compound also came in with an HC50 at 1 h in series [4] of over 200 µM.
Consider `O=C(C1=C(O)C(=O)N(c2nnc(SCc3ccccc3)s2)C1c1ccc(O)c(O)c1)c1cc2ccccc2o1` (stereo not given), for which the MIC (in series [1]; against Staphylococcus aureus [2]; in the series on Enterococcus faecalis; against Enterococcus faecium) was over 100 µM in each case. The CC50 at 24 h in [3] is over 100 µM. This compound gave an HC50 at 1 h in series [4] of over 200 µM.
On to `O=C(C1=C(O)C(=O)N(c2nnc(SCc3ccccc3Cl)s2)C1c1cccc(O)c1)c1cc2ccccc2o1` (stereo not given), for which the MIC (in series [1]; in the series with Staphylococcus aureus [2]; against Enterococcus faecalis; with Enterococcus faecium) was over 100 µM throughout. Also, the CC50 at 24 h in series [3] is over 100 µM. In series [4], this compound yielded an HC50 at 1 h of over 200 µM.
With `COc1cc(C2C(C(=O)c3cc4ccccc4o3)=C(O)C(=O)N2c2nnc(SCc3ccccc3)s2)ccc1O` (stereo not given), the MIC (in [1]; against Staphylococcus aureus [2]; in the series with Enterococcus faecalis; against Enterococcus faecium) was over 100 µM throughout. For the same compound, in series [3], the CC50 at 24 h was over 100 µM. Moreover, in series [4], the HC50 at 1 h is over 200 µM.
Turning to `O=C(C1=C(O)C(=O)N(c2nnc(SCc3ccccc3)s2)C1c1cccc(O)c1O)c1cc2ccccc2o1` (stereo not given), the MIC in series [1] worked out at 50 µM (≈ 27.9 µg/mL); with Staphylococcus aureus [2] it was 50 µM (≈ 27.9 µg/mL); in the series on Enterococcus faecalis, 25 µM (≈ 13.9 µg/mL); with Enterococcus faecium, 25 µM (≈ 13.9 µg/mL). This compound returned a CC50 at 24 h in [3] of over 100 µM. This compound showed an HC50 at 1 h in series [4] of over 200 µM.
For the compound `COc1cc(C2C(C(=O)c3cc4ccccc4o3)=C(O)C(=O)N2c2nnc(SCc3ccccc3Cl)s2)ccc1O` (stereo not given), the MIC in series [1] was 25 µM (≈ 15.2 µg/mL); against Staphylococcus aureus [2] it was over 100 µM; in the series with Enterococcus faecalis it was over 100 µM; against Enterococcus faecium, over 100 µM. The same compound yielded a CC50 at 24 h in series [3] of over 100 µM. The HC50 at 1 h in [4] is over 200 µM. In addition, the half-inhibitory concentration (IC50) (commonly the concentration that gives 50% inhibition) in [5] was found to be 46.1 µM.
`O=C(C1=C(O)C(=O)N(c2nnc(SCc3ccccc3Cl)s2)C1c1ccccc1O)c1cc2ccccc2s1` (stereo not given): the MIC (in series [1]; in the series with Staphylococcus aureus [2]; with Enterococcus faecalis; in the series on Enterococcus faecium) was over 100 µM in each case. This compound showed a CC50 at 24 h in [3] of over 100 µM. For the same compound, the HC50 at 1 h in series [4] is over 200 µM.
`O=C(C1=C(O)C(=O)N(c2nnc(SCc3ccccc3Cl)s2)C1c1ccc(O)cc1)c1cc2ccccc2o1` (stereo not given): the MIC was 50 µM (≈ 28.8 µg/mL) in [1], 100 µM (≈ 57.6 µg/mL) in the series on Staphylococcus aureus [2], over 100 µM in the series with Enterococcus faecalis and over 100 µM in the series on Enterococcus faecium. In series [3], this compound registered a CC50 at 24 h of over 100 µM. The HC50 at 1 h in series [4] was over 200 µM.
`CN[C@H](CC(C)C)C(=O)N[C@H]1C(=O)N[C@@H](CC(N)=O)C(=O)N[C@H]2C(=O)N[C@H]3C(=O)N[C@H](C(=O)N[C@H](C(=O)O)c4cc(O)cc(O)c4-c4cc3ccc4O)[C@H](O)c3ccc(c(Cl)c3)Oc3cc2cc(c3O[C@@H]2O[C@H](CO)[C@@H](O)[C@H](O)[C@H]2O[C@H]2C[C@](C)(N)[C@H](O)[C@H](C)O2)Oc2ccc(cc2Cl)[C@H]1O` [VANCOMYCIN]: the result in the series with Staphylococcus aureus [6] was Active. Also, the “log(activity)” value in the series with Staphylococcus aureus [7] amounted to 2.
Take `COc1ccc(O)c(C2C(C(=O)c3cc4ccccc4o3)=C(O)C(=O)N2c2nnc(SCc3ccccc3Cl)s2)c1` (stereo not given): the MIC is 50 µM (≈ 30.3 µg/mL) in [1], 50 µM (≈ 30.3 µg/mL) with Staphylococcus aureus [2], 100 µM (≈ 60.6 µg/mL) in the series with Enterococcus faecalis and 100 µM (≈ 60.6 µg/mL) in the series with Enterococcus faecium. Besides, the CC50 at 24 h in series [3] is over 100 µM. Also, the HC50 at 1 h in series [4] is over 200 µM.
Take `O=C(C1=C(O)C(=O)N(c2nnc(SCc3ccccc3)s2)C1c1ccc(O)cc1O)c1cc2ccccc2o1` (stereo not given): the MIC (in [1]; against Staphylococcus aureus [2]; with Enterococcus faecalis; in the series with Enterococcus faecium) was over 100 µM in each case. This compound showed a CC50 at 24 h in [3] of over 100 µM. In addition, the HC50 at 1 h in series [4] is over 200 µM.
`CC(=O)NC[C@H]1CN(c2ccc(N3CCOCC3)c(F)c2)C(=O)O1`: the fold change (FC) (with Staphylococcus aureus [8]; in series [9]) was 4 each time.
With `COC(=O)COc1ccc(C2C(C(=O)c3cc4ccccc4o3)=C(O)C(=O)N2c2nnc(SCc3ccccc3Cl)s2)cc1` (stereo not given), the MIC (in series [1]; in the series with Staphylococcus aureus [2]; against Enterococcus faecalis; against Enterococcus faecium) was over 100 µM each time. In series [3], this compound came in with a CC50 at 24 h of over 100 µM. The same compound showed an HC50 at 1 h in [4] of over 200 µM.
For `O=C(C1=C(O)C(=O)N(c2nnc(SCc3ccccc3Cl)s2)C1c1ccc(O)c(Br)c1)c1cc2ccccc2o1` (stereo not given), the MIC (in [1]; against Staphylococcus aureus [2]; against Enterococcus faecalis; against Enterococcus faecium) was over 100 µM throughout. The compound further returned a CC50 at 24 h in series [3] of over 100 µM. In series [4], this compound came in with an HC50 at 1 h of over 200 µM.
`O=C(C1=C(O)C(=O)N(c2nnc(SCc3cccc(Cl)c3)s2)C1c1ccccc1O)c1cc2ccccc2o1` (stereo not given): the minimal inhibitory concentration (MIC) was 25 µM (≈ 14.4 µg/mL) in [1], 50 µM (≈ 28.8 µg/mL) in the series with Staphylococcus aureus [2], 25 µM (≈ 14.4 µg/mL) in the series on Enterococcus faecalis and 25 µM (≈ 14.4 µg/mL) against Enterococcus faecium. This compound yielded a CC50 at 24 h in series [3] of over 100 µM. The compound also came in with an HC50 at 1 h in [4] of over 200 µM.

Values taken from ChEMBL document CHEMBL5614418, “Discovery of novel dihydropyrrolidone-thiadiazole compound crosstalk between the YycG/F two-component regulatory pathway and cell membrane homeostasis to combat methicillin-resistant Staphylococcus aureus” (Eur J Med Chem, 2024).
